Publication PMC8905580, “Aggregation Behavior of Structurally Similar Therapeutic Peptides Investigated by ^1H NMR and All-Atom Molecular Dynamics Simulations” (Molecular Pharmaceutics, 2022)
Square brackets hold non-standard residues; d marks the D form. Peptide text beside a SMILES is read from it. * marks the point of attachment. dPhe(4-NHCONH2) = NC(=O)Nc1ccc(C[C@@H](N)C(=O)O)cc1; Dihydroorotyl(S) = O=C1C[C@@H](C(=O)*)NC(=O)N1; dPhe(4-Cl) = N[C@H](Cc1ccc(Cl)cc1)C(=O)O; Phe(4-NH2) = Nc1ccc(C[C@H](N)C(=O)O)cc1; d2Nal = N[C@H](Cc1ccc2ccccc2c1)C(=O)O; Lys(iPr) = CC(C)NCCCC[C@H](N)C(=O)O; d3Pal = N[C@H](Cc1cccnc1)C(=O)O

Columns and labels:
[1] = set-up: method as in PMID 33586081; conditions: seen as reduction in total detectable signal and decrease in fraction of sharp signals; cited from earlier work
[2] = 1H NMR in neat H2O, aggregation with concentration and time; type: physicochemical
Method: (§1) ^1H NMR experiments were performed at peptide concentrations of 0.1, 0.5, 1, 2, 5, and 10 mM in 100% H2O. Peptide solutions were prepared in glass vials without pH adjustments, as the addition of concentrated acid or base results in local pH variations that might induce aggregation. Diffusion NMR experiments were performed at peptide concentrations of 3 and 10 mM in 100% D2O. Thus, the diffusion NMR results may not be perfectly representative of the situation in the samples in H2O, but general conclusions can still be drawn.
(§2) The samples were gently agitated, by manual swirling, until the solution appeared visually homogeneous and 450 μL of each sample was transferred to disposable 5 mm NMR tubes (Type 5TA 178 mm from Teknolab Sorbent, Sweden). Aliquots were pipetted slowly to reduce the risk of possible shear-induced aggregation. The time between sample preparation and the start of the NMR measurement was around 15 min. On selected samples, the approximate pH was assessed with pH indicator strips (Scharlau, pH 2.0–9.0, TP0209000S) after aliquots for the NMR samples were taken out.
NMR experiments were performed at 25 °C on either a Varian Unity Inova 500 MHz spectrometer equipped with a Z-spec DBG500-5EF 5 mm dual broadband gradient probe or a Bruker AVANCE III HD 500 MHz spectrometer equipped with a BBO probe, Bruker SMART probe. Spectra were recorded with an excitation sculpting sequence for solvent suppression.[40] […] On the Varian, 300 scans were used on samples of 0.1–1 mM and 64 on 1–10 mM (1 mM was measured using both settings to bridge the concentration series and ensure comparability), which gave adequate signal for unaggregated samples. […]
The absolute integral values (IntC), at each investigated concentration, for signals arising from the methyl groups of leucine (6H; for D-Phe^6-GnRH, cetrorelix, and degarelix) or nor-leucine (3H; for ozarelix) were determined. […] Additionally, IntC of the signal from the acetate counterion (a singlet) were determined for all peptides. […]

[3] = Visual inspection of samples for turbidity and viscosity; type: physicochemical; conditions: all samples 0.1-10 mM acetate salt in 100% H2O, no buffer, no pH adjustment; NMR tube in light box compared with pure water; room temperature
Method: as §1, §2
The NMR tubes containing samples were visually inspected in a light box and compared to an NMR tube containing pure water to simplify identification of visually detectable aggregates.

[4] = Approximate sample pH by pH indicator strips; type: physicochemical; conditions: all concentrations and time points investigated, H2O

Concentration at which a distinct group of broad peaks at 1.2-1.6 ppm (intermediately sized aggregates) appears ([2]; 1H NMR, 25 °C, 100% H2O): ≥ 1000 µM | Change of 1H NMR spectra over time, 5 and 10 mM samples ([2]; 5 and 10 mM in 100% H2O, over investigated timespan (ozarelix: rapid 4 scan experiments about 15 and 25 min after preparation, 24 h)): increased notably in intensity | Fate of acetate counterions in the peptide aggregates formed (1H NMR acetate signal) ([2]; acetate salts, 0.1-10 mM in 100% H2O, 25 °C): exclusion | Visual appearance of samples over the investigated time span [3]: visually clear | Sample pH [4]: ~ 5.5
SMILES: CC(=O)N[C@H](Cc1ccc2ccccc2c1)C(=O)N[C@H](Cc1ccc(Cl)cc1)C(=O)N[C@H](Cc1cccnc1)C(=O)N[C@@H](CO)C(=O)N[C@@H](Cc1ccc(NC(=O)[C@@H]2CC(=O)NC(=O)N2)cc1)C(=O)N[C@H](Cc1ccc(NC(N)=O)cc1)C(=O)N[C@@H](CC(C)C)C(=O)N[C@@H](CCCCNC(C)C)C(=O)N1CCC[C@H]1C(=O)N[C@H](C)C(N)=O [degarelix] (Ac-[d2Nal][dPhe(4-Cl)][d3Pal]S[Phe(4-NH2)](Dihydroorotyl(S))[dPhe(4-NHCONH2)]L[Lys(iPr)]P[dA]-NH2)
Effect of buffer or background salt on aggregation (1H NMR) [1]: strongly enhance aggregation
